From the NIST ThermoML archive (doi:10.1021/acs.jced.8b00554)
Several values for one entry are separate records, joined by “and”; a condition that tells them apart may be missing. Equal values may be shown once.

Experiment: xn = mol fraction of the nth substance listed
Settings: Liquid, Vibrating tube method

CCCCCCCCC [nonane] + CCCO
mass density
Settings | 313.15 K | 323.15 K
100 kPa, x2 = 0.1231 | – | 696.08 kg/m3
100 kPa, x2 = 0.2315 | – | 700.11 kg/m3
100 kPa, x2 = 0.3229 | – | 704.16 kg/m3
100 kPa, x2 = 0.4272 | – | 709.94 kg/m3
100 kPa, x2 = 0.7021 | 741.23 kg/m3 | 732.13 kg/m3
100 kPa, x2 = 0.8941 | 766.16 kg/m3 | 757.59 kg/m3
1000 kPa, x2 = 0.7021 | 742.27 kg/m3 | 732.62 kg/m3
1010 kPa, x2 = 0.1231 | – | 696.28 kg/m3
1010 kPa, x2 = 0.2315 | – | 700.63 kg/m3
1010 kPa, x2 = 0.3229 | – | 704.67 kg/m3
1010 kPa, x2 = 0.4272 | – | 710.4 kg/m3
1010 kPa, x2 = 0.8941 | – | 758.12 kg/m3
1020 kPa, x2 = 0.8941 | 767.45 kg/m3 | –
2000 kPa, x2 = 0.1231 | – | 697.28 kg/m3
2000 kPa, x2 = 0.8941 | 768.33 kg/m3 | 759.05 kg/m3
2010 kPa, x2 = 0.2315 | – | 701.62 kg/m3
2010 kPa, x2 = 0.3229 | – | 705.65 kg/m3
2010 kPa, x2 = 0.4272 | – | 711.37 kg/m3
2010 kPa, x2 = 0.7021 | 743.17 kg/m3 | 733.6 kg/m3
3000 kPa, x2 = 0.7021 | 744.09 kg/m3 | –
3010 kPa, x2 = 0.2315 | – | 702.6 kg/m3
3010 kPa, x2 = 0.3229 | – | 706.63 kg/m3
3010 kPa, x2 = 0.4272 | – | 712.36 kg/m3
3010 kPa, x2 = 0.8941 | 769.22 kg/m3 | 760 kg/m3
3020 kPa, x2 = 0.1231 | – | 698.25 kg/m3
3020 kPa, x2 = 0.7021 | – | 734.56 kg/m3
4000 kPa, x2 = 0.2315 | – | 703.57 kg/m3
4000 kPa, x2 = 0.4272 | – | 713.31 kg/m3
4000 kPa, x2 = 0.8941 | – | 760.92 kg/m3
4010 kPa, x2 = 0.1231 | – | 699.22 kg/m3
4010 kPa, x2 = 0.3229 | – | 707.6 kg/m3
4010 kPa, x2 = 0.7021 | 745 kg/m3 | –
4010 kPa, x2 = 0.8941 | 770.09 kg/m3 | –
4020 kPa, x2 = 0.7021 | – | 735.53 kg/m3
5010 kPa, x2 = 0.1231 | – | 700.18 kg/m3
5010 kPa, x2 = 0.2315 | – | 704.52 kg/m3
5010 kPa, x2 = 0.4272 | – | 714.28 kg/m3
5010 kPa, x2 = 0.7021 | 745.89 kg/m3 | 736.47 kg/m3
5010 kPa, x2 = 0.8941 | 770.95 kg/m3 | 761.84 kg/m3
5020 kPa, x2 = 0.3229 | – | 708.55 kg/m3
6000 kPa, x2 = 0.3229 | 689.86 kg/m3 | –
6000 kPa, x2 = 0.8941 | 771.82 kg/m3 | –
6010 kPa, x2 = 0.1231 | – | 701.13 kg/m3
6010 kPa, x2 = 0.2315 | 670.36 kg/m3 | 705.46 kg/m3
6010 kPa, x2 = 0.3229 | – | 709.51 kg/m3
6010 kPa, x2 = 0.4272 | 717.03 kg/m3 | 715.23 kg/m3
6010 kPa, x2 = 0.7021 | – | 737.41 kg/m3
6010 kPa, x2 = 0.8941 | – | 762.78 kg/m3
6020 kPa, x2 = 0.1231 | 666.76 kg/m3 | –
6020 kPa, x2 = 0.7021 | 746.77 kg/m3 | –
7000 kPa, x2 = 0.1231 | 667.99 kg/m3 | –
7000 kPa, x2 = 0.3229 | 691.15 kg/m3 | –
7000 kPa, x2 = 0.8941 | 772.68 kg/m3 | 763.69 kg/m3
7010 kPa, x2 = 0.3229 | – | 710.46 kg/m3
7010 kPa, x2 = 0.7021 | 747.64 kg/m3 | –
7020 kPa, x2 = 0.1231 | – | 702.05 kg/m3
7020 kPa, x2 = 0.2315 | 671.62 kg/m3 | 706.4 kg/m3
7020 kPa, x2 = 0.4272 | 718.27 kg/m3 | 716.18 kg/m3
7020 kPa, x2 = 0.7021 | – | 738.36 kg/m3
8000 kPa, x2 = 0.1231 | 669.23 kg/m3 | –
8000 kPa, x2 = 0.3229 | 692.44 kg/m3 | –
8010 kPa, x2 = 0.3229 | – | 711.38 kg/m3
8010 kPa, x2 = 0.4272 | 719.48 kg/m3 | 717.13 kg/m3
8010 kPa, x2 = 0.7021 | 748.52 kg/m3 | 739.3 kg/m3
8010 kPa, x2 = 0.8941 | 773.53 kg/m3 | 764.6 kg/m3
8020 kPa, x2 = 0.1231 | – | 702.98 kg/m3
8020 kPa, x2 = 0.2315 | 672.88 kg/m3 | 707.34 kg/m3
9000 kPa, x2 = 0.1231 | 670.48 kg/m3 | –
9000 kPa, x2 = 0.2315 | – | 708.26 kg/m3
9000 kPa, x2 = 0.7021 | 749.39 kg/m3 | 740.23 kg/m3
9000 kPa, x2 = 0.8941 | 774.38 kg/m3 | –
9010 kPa, x2 = 0.1231 | – | 703.89 kg/m3
9010 kPa, x2 = 0.3229 | 693.71 kg/m3 | –
9010 kPa, x2 = 0.4272 | 720.71 kg/m3 | 718.05 kg/m3
9020 kPa, x2 = 0.2315 | 674.14 kg/m3 | –
9020 kPa, x2 = 0.3229 | – | 712.32 kg/m3
9020 kPa, x2 = 0.8941 | – | 765.49 kg/m3
10000 kPa, x2 = 0.1231 | – | 704.81 kg/m3
10000 kPa, x2 = 0.8941 | – | 766.39 kg/m3
10010 kPa, x2 = 0.2315 | 675.41 kg/m3 | –
10010 kPa, x2 = 0.3229 | – | 713.24 kg/m3
10010 kPa, x2 = 0.4272 | 721.93 kg/m3 | 718.99 kg/m3
10010 kPa, x2 = 0.7021 | 750.23 kg/m3 | 741.14 kg/m3
10020 kPa, x2 = 0.2315 | – | 709.17 kg/m3
10020 kPa, x2 = 0.8941 | 775.22 kg/m3 | –
11000 kPa, x2 = 0.3229 | – | 714.15 kg/m3
11000 kPa, x2 = 0.8941 | 776.04 kg/m3 | 767.27 kg/m3
11010 kPa, x2 = 0.1231 | 672.98 kg/m3 | 705.72 kg/m3
11010 kPa, x2 = 0.2315 | 676.62 kg/m3 | 710.07 kg/m3
11010 kPa, x2 = 0.4272 | 723.15 kg/m3 | 719.89 kg/m3
11010 kPa, x2 = 0.7021 | – | 742.04 kg/m3
11020 kPa, x2 = 0.3229 | 696.2 kg/m3 | –
11020 kPa, x2 = 0.7021 | 751.07 kg/m3 | –
12000 kPa, x2 = 0.1231 | 674.18 kg/m3 | –
12000 kPa, x2 = 0.3229 | 697.42 kg/m3 | –
12010 kPa, x2 = 0.2315 | 677.87 kg/m3 | –
12010 kPa, x2 = 0.3229 | – | 715.05 kg/m3
12010 kPa, x2 = 0.4272 | 724.32 kg/m3 | –
12010 kPa, x2 = 0.7021 | 751.91 kg/m3 | 742.93 kg/m3
12020 kPa, x2 = 0.8941 | 776.87 kg/m3 | –
13000 kPa, x2 = 0.2315 | 679.08 kg/m3 | –
13000 kPa, x2 = 0.4272 | 725.44 kg/m3 | –
13010 kPa, x2 = 0.1231 | 675.41 kg/m3 | –
13010 kPa, x2 = 0.3229 | 698.65 kg/m3 | –
13010 kPa, x2 = 0.8941 | 777.67 kg/m3 | –
13020 kPa, x2 = 0.7021 | 752.73 kg/m3 | –
14000 kPa, x2 = 0.1231 | 676.57 kg/m3 | –
14010 kPa, x2 = 0.2315 | 680.27 kg/m3 | –
14010 kPa, x2 = 0.3229 | 699.83 kg/m3 | –
14010 kPa, x2 = 0.4272 | 726.63 kg/m3 | –
14010 kPa, x2 = 0.8941 | 778.47 kg/m3 | –
14020 kPa, x2 = 0.7021 | 753.54 kg/m3 | –
15010 kPa, x2 = 0.1231 | 717.43 kg/m3 and 677.73 kg/m3 | –
15010 kPa, x2 = 0.2315 | 681.42 kg/m3 and 721.96 kg/m3 | –
15010 kPa, x2 = 0.3229 | 726.26 kg/m3 | –
15010 kPa, x2 = 0.4272 | 727.76 kg/m3 and 732.14 kg/m3 | –
15020 kPa, x2 = 0.3229 | 700.99 kg/m3 | –
15020 kPa, x2 = 0.7021 | 754.35 kg/m3 | –
15020 kPa, x2 = 0.8941 | 779.28 kg/m3 | –
16000 kPa, x2 = 0.8941 | 780.06 kg/m3 | –
16010 kPa, x2 = 0.2315 | 682.56 kg/m3 and 722.75 kg/m3 | –
16010 kPa, x2 = 0.7021 | 755.14 kg/m3 | –
16020 kPa, x2 = 0.1231 | 718.2 kg/m3 | –
16020 kPa, x2 = 0.3229 | 702.15 kg/m3 and 727.04 kg/m3 | –
16020 kPa, x2 = 0.4272 | 728.86 kg/m3 and 732.94 kg/m3 | –
17000 kPa, x2 = 0.4272 | 729.95 kg/m3 and 733.7 kg/m3 | –
17010 kPa, x2 = 0.1231 | 718.99 kg/m3 | –
17010 kPa, x2 = 0.2315 | 683.64 kg/m3 and 723.54 kg/m3 | –
17010 kPa, x2 = 0.3229 | 727.83 kg/m3 | –
17010 kPa, x2 = 0.7021 | 755.92 kg/m3 | –
17010 kPa, x2 = 0.8941 | 780.82 kg/m3 | –
17020 kPa, x2 = 0.1231 | 679.98 kg/m3 | –
17020 kPa, x2 = 0.3229 | 703.28 kg/m3 | –
18000 kPa, x2 = 0.7021 | 756.69 kg/m3 | –
18010 kPa, x2 = 0.1231 | 719.75 kg/m3 | –
18010 kPa, x2 = 0.2315 | 684.75 kg/m3 and 724.3 kg/m3 | –
18010 kPa, x2 = 0.3229 | 704.37 kg/m3 and 728.61 kg/m3 | –
18010 kPa, x2 = 0.4272 | 734.49 kg/m3 | –
18010 kPa, x2 = 0.8941 | 781.6 kg/m3 | –
18020 kPa, x2 = 0.1231 | 681.03 kg/m3 | –
18020 kPa, x2 = 0.4272 | 731.02 kg/m3 | –
19000 kPa, x2 = 0.2315 | 725.04 kg/m3 | –
19000 kPa, x2 = 0.3229 | 705.41 kg/m3 | –
19000 kPa, x2 = 0.7021 | 757.45 kg/m3 | –
19000 kPa, x2 = 0.8941 | 782.35 kg/m3 | –
19010 kPa, x2 = 0.1231 | 682.1 kg/m3 and 720.5 kg/m3 | –
19010 kPa, x2 = 0.2315 | 685.8 kg/m3 | –
19010 kPa, x2 = 0.4272 | 732.06 kg/m3 | –
19020 kPa, x2 = 0.3229 | 729.37 kg/m3 | –
19020 kPa, x2 = 0.4272 | 735.24 kg/m3 | –
20000 kPa, x2 = 0.1231 | 721.22 kg/m3 | –
20010 kPa, x2 = 0.1231 | 683.05 kg/m3 | –
20010 kPa, x2 = 0.2315 | 686.85 kg/m3 | –
20010 kPa, x2 = 0.4272 | 736 kg/m3 | –
20010 kPa, x2 = 0.7021 | 758.2 kg/m3 | –
20010 kPa, x2 = 0.8941 | 783.1 kg/m3 | –
20020 kPa, x2 = 0.2315 | 725.78 kg/m3 | –
20020 kPa, x2 = 0.3229 | 706.48 kg/m3 and 730.09 kg/m3 | –
20020 kPa, x2 = 0.4272 | 733.04 kg/m3 | –
